# Data published in patent EP2759295A1, “Foam cell specific Liver X Receptor (LXR) alpha agonist, SIRT1 inhibitors as well as p300 inhibitors as pharmaceutically active agents” (Max-Planck-Gesellschaft zur Förderung der Wissenschaften …, priority 2013, dated 2014).
# Entries after “also recorded” stand apart in the source; their conditions may differ. Where two headings read alike, the source gives them in different places.
# Experiments:
# Assay type in all cases: cell-based, human
# [1] = test system: THP-1 macrophages; assay: CellTiter-Glo viability assay in THP-1 macrophages
# Procedure: (§1) For generating macrophages differentiation was induced by 10^-8 M Phorbol 12-myristate 13-acetate (PMA) (Sigma-Aldrich) for 48 h. Ligand treatment of macrophages was performed for further 24 h. To induce foam cell formation macrophages were treated for additional 48 h with 100 µg/mL modified human oxidized low density lipoprotein (oxLDL) obtained from Source BioScience (RP-048). Ligand treatment was performed simultaneously with foam cell formation. Cholesterol loading and treatment was controlled with Oil Red O staining (Alfa Aeser). To investigate ligand induced effects on cell proliferation of THP-1 macrophages CellTiter-Glo Luminescent Cell Viability Assay (Promega) was utilized.
# [2] = test system: foam cells; assay: qPCR gene expression of LXRα target genes in foam cells; conditions: 10 µM
# Procedure: as §1
# (§2) Total RNA isolation and purification was performed by using the RNeasy Mini Kit (QIAGEN) and RNase-Free DNase Set (QIAGEN). cDNA was generated by reverse transcription using the High Capacity cDNA Reverse Transcription Kit (Applied Biosystems). Gene expression was quantified using the SYBR Green PCR Master Mix (Applied Biosystems) and ABI 7900HT Fast Real Time PCR System (Applied Biosystems). In each reaction 0.8 ng/µL cDNA and 0.2 µM primers were used. Gene expression was calculated with the ΔΔCt-method. β-Actin was used for normalisation.
# [3] = test system: macrophages; assay: triglyceride content in macrophages (Triglyceride Assay Kit); conditions: 10 µM, 48 h
# Procedure: (§3) THP-1 monocytes were plated out into 24-well plates (Nunc) at a density of 2 x 10^5 cells/well. After differentiation and treatment cells were lysed with 100 µL lysis buffer (PBS, 0.25 M NaCl, 1% Triton X-100). Total and free cholesterol were determined using the colorimetric enzymatic Amplex Red Cholesterol Assay Kit (Invitrogen). Triglycerides were quantified by Triglyceride Assay Kit (BioVision). For normalisation protein content was determined with Pierce 660 nm Protein Assay Reagent (Thermo Scientific).
# [4] = test system: foam cells; assay: Western blot of LXRα and APOE content in foam cells; conditions: densitometry
# Procedure: Whole cell extracts were harvested from three biological replicates and denaturized for SDS-PAGE (NuPAGE Novex 4-12% Bis-Tris Gels). Proteins were blotted on nitrocellulose Hybond ECL membrane and incubated with strictly validated published antibodies against LXRα (Abcam, ab 41902), APOE (Abcam ab1906), and as housekeeping protein control β-Actin (Santa Cruz Biotechnology, sc-47778, C4). Secondary antibodies were HRP labeled anti-mouse and anti-rabbit (Santa Cruz Biotechnology). After detection with Western Lightning Plus-ECL solution membranes were stripped with Restore Plus Western Blot Stripping Buffer. Densitometry was performed in ImageQuant TL (GE Healthcare). This tool measures quantitatively the optical density and provides more accurate data than simple eye-observations. The calculation of log (protein of interest/ β-Actin) corrects data for loading imbalances.
# [5] = test system: foam cells; assay: cholesterol content in foam cells (Amplex Red Cholesterol Assay); conditions: 10 µM, 48 h
# Procedure: as §3
# [6] = test system: foam cells; assay: siRNA-mediated LXRα/β knockdown in foam cells with qPCR; conditions: 10 µM ligand for 24 h
# Procedure: Target specificity of ligand-dependent gene expression effects was investigated in siRNA-mediated LXRα and β-knockdown foam cells with subsequent qPCR or microarray analysis. Therefore, 2 x 10^5 THP-1 cells/well were differentiated in 24-well plate and induced to foam cells prior to knockdown as described above. Foam cells were transfected using TransIT-TKO transfection reagent (Mirus Bio), for combined knockdown with 15 nM LXRα Silencer Validated siRNA (Ambion, ID 5458) and 15 nM LXRβ Silencer Select Validated siRNA (Ambion, ID s14684) and with 30 nM LXRα or LXRβ for individual knockdowns, respectively. As control we used 30 nM Silencer Select Negative Control #1 (Ambion). Transfection was carried out for 48 h and followed by treatment with 10 µM ligand or vehicle control for 24 h.
# as §2
compound,measurement,setting,value
"C(=C\c1ccc(OCC2CO2)cc1)/c1ccccc1 (stereo not shown) [compound 1, 2-[[4-[(E)-styryl]phenoxy]-methyl]oxirane]",no cytotoxic effects / no reduction of cellular viability up to,[1],up to 50 µM
same,no cytotoxic effects / no reduction of cellular viability up to,[1]; listed as Compound 1,up to 25 µM
same,"expression of LXRα target genes (LXRα, SREBF1, ABCA1, APOE)",[2],strongly in foam cells; also recorded: potent target gene expression similar to T09; also recorded: up-regulation of SREBF1 mRNA
same,triglyceride level,[3],stayed unchanged
same,protein expression levels of LXRα target genes,[4],increased protein expression levels of LXRα target genes
same,total and esterified cholesterol content,[5],significant reduction of total and esterified cholesterol content
same,gene expression of LXRα and ABCA1 after LXRα/β knockdown,[6],higher dependency on the LXRα subtype
